Target: T1, serotonin reuptake (Rattus norvegicus, UniProt P31652)
T1 construct: Synapses obtained from rat brains; from tissue; host or cells: rat brain synapses (synaptosomes)
Experiment: Serotonin (5-HT) reuptake, [3H]-serotonin uptake in rat brain synapses
Assay type: biochemical
Settings: 0.3 μg of extract/ml of solution
Method: The uptake tests were carried out in vitro on synapses of rats.
The baseline activity is determined by incubating the same mixture for 15 minutes at 37° C. in the presence of 10 μM imipramine in order to block the reuptake.
Following the incubation, the samples are filtered rapidly in vacuo through glass-fibre filters (GB/B, Packard) and rinsed twice with ice-cold incubation buffer in order to eliminate free [^3H]-serotonin. The filters are dried and the retained radioactivity is measured by means of a scintillation counter (Topcount, Packard) using a scintillation cocktail (Microscint O, Packard).
The results are expressed as a percent inhibition of the control uptake of [^3H]-serotonin (see Table 1)

T1 sequence (P31652 whole entry): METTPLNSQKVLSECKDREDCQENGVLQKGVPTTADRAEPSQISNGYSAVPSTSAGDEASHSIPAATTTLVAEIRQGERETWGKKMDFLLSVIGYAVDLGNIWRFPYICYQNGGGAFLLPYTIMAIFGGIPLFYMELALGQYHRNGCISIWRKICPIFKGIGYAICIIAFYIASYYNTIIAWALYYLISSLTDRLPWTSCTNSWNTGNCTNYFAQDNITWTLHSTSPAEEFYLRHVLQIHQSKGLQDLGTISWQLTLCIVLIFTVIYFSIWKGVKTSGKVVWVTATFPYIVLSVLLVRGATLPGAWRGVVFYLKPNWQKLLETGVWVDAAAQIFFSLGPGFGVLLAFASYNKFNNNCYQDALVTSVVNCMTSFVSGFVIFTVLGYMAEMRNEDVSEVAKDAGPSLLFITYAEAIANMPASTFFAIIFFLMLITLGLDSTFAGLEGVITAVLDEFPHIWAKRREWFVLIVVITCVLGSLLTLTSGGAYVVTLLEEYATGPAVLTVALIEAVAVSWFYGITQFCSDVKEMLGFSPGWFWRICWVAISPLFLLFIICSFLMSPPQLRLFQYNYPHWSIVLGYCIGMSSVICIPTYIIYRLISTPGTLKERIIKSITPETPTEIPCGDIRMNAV

% inhibition of serotonin reuptake: 103.8%
Compound: C=C1CCC2C(C3C1CCC3(C)C(CC(C)C)c1c(O)c(C=O)c(O)c(C=O)c1O)C2(C)C (stereo not shown) [Macrocarpal G, 5-(1-(3,3,11-trimethyl-7-methylene-tricyclo(6.3.0.0(2,4))undec-11-yl)-3-methylbutyl)-2,4,6-trihydroxybenzene-1,3-dicarbaldehyde]

Source: patent US20090324754A1, “EUCALYPTUS EXTRACT, METHOD OF PREPARATION AND THERAPEUTIC USES THEREOF” (Pierre Fabre Medicament, priority 2006, published 2009)
